In patent US10696707B2, “Polyene macrolide derivative” (Shionogi & Co., Ltd., priority 2014, dated 2020):
Values after ≈ are worked out from the molar mass of the structure shown. Read-outs that look alike come from different tables or passages of the source.

Assays:
Format in all cases: cell-based
A. flavus ATCC204304 = assay: Antifungal activity test, MIC by broth microdilution (CLSI M38-A2)
Protocol: (§1) The Minimum Inhibitory Concentration (MIC) values of the present compound against yeast and filamentous fungi were determined by broth microdilution assay according to the Clinical Laboratory Standards Institute (CLSI) guidelines outlined in documents M27-A3 and M38-A2. The medium used in the assay consisted of RPMI1640 (with glutamine, without bicarbonate) with 2% glucose and 0.165 mol/L morpholinepropanesulfonic acid (MOPS) with pH adjusted to 7.0 using 1 mol/L sodium hydroxide. The present compound was dissolved in dimethyl sulfoxide (DMSO). A series of two-fold dilutions were prepared in DMSO, and then 2 μL of the diluted compound was added to each well in 96-well sterile plates. Each inoculum was prepared by diluting a suspension of Candida spp. or a conidia suspension of Aspergillus spp. suspended in sterile saline solution, and then 200 μL was added to each well to a predetermined concentration using RPMI/MOPS (final concentration for each solution: approximately 1×10^3 cells/mL and approximately 1×10^4 CFU/mL). Plates of Candida spp. and Aspergillus spp. were incubated at 35° C. for 24-48 hours. The MIC was defined as the lowest concentration giving 100% inhibition compared to the growth control.

A. fumigatus ATCC204305 = assay: as above
Protocol: as §1

C. albicans ATCC90028 = assay: Antifungal activity test, MIC by broth microdilution (CLSI M27-A3)
Protocol: as §1

[1] = A. flavus ATCC204304, broth microdilution, 35° C., 24-48 hours, 100% inhibition
[2] = A. fumigatus ATCC204305, broth microdilution, 35° C., 24-48 hours, 100% inhibition
[3] = C. albicans ATCC90028, broth microdilution, 35° C., 24-48 hours, 100% inhibition
[4] = Aspergillus flavus, A. flavus ATCC204304, broth microdilution, 35° C., 24-48 hours, 100% inhibition, read-out: MIC
[5] = Aspergillus fumigatus, A. fumigatus ATCC204305, broth microdilution, 35° C., 24-48 hours, 100% inhibition, read-out: MIC
[6] = Candida albicans, C. albicans ATCC90028, broth microdilution, 35° C., 24-48 hours, 100% inhibition, read-out: MIC

Row | MIC (A. flavus ATCC204304; [1]) | MIC (A. fumigatus ATCC204305; [2]) | MIC (C. albicans ATCC90028; [3]) | MIC (A. flavus ATCC204304; [4]) | MIC (A. fumigatus ATCC204305; [5]) | MIC (C. albicans ATCC90028; [6]) | SMILES | other results
1 | 0.5 µg/mL (≈ 0.487 µM) | 1 µg/mL (≈ 0.974 µM) | 0.5 µg/mL (≈ 0.487 µM) | – | – | – | C[C@@H]1[C@H](O)[C@@H](C)/C=C/C=C/C=C/C=C/C=C/C=C/C=C/[C@H](O[C@@H]2O[C@H](C)[C@@H](O)[C@H](N)[C@@H]2O)C[C@@H]2O[C@](O)(C[C@@H](O)C[C@@H](O)[C@H](O)CC[C@@H](O)C[C@@H](O)CC(=O)O[C@H]1C)C[C@H](O)[C@H]2NC(=O)NNC[C@H](O)CO [I-227] | –
2 | 0.5 µg/mL (≈ 0.475 µM) | 1 µg/mL (≈ 0.95 µM) | 0.5 µg/mL (≈ 0.475 µM) | – | – | – | C[C@@H]1[C@H](O)[C@@H](C)/C=C/C=C/C=C/C=C/C=C/C=C/C=C/[C@H](O[C@@H]2O[C@H](C)[C@@H](O)[C@H](N)[C@@H]2O)C[C@@H]2O[C@](O)(C[C@@H](O)C[C@@H](O)[C@H](O)CC[C@@H](O)C[C@@H](O)CC(=O)O[C@H]1C)C[C@H](O)[C@H]2NC(=O)N1C[C@H](O)CC1C(=O)O (stereo partly drawn) [I-230] | –
3 | – | – | – | 0.5 µg/mL (≈ 0.488 µM) | 1 µg/mL (≈ 0.976 µM) | 0.5 µg/mL (≈ 0.488 µM) | C[C@@H]1[C@H](O)[C@@H](C)/C=C/C=C/C=C/C=C/C=C/C=C/C=C/[C@H](O[C@@H]2O[C@H](C)[C@@H](O)[C@H](N)[C@@H]2O)C[C@@H]2O[C@](O)(C[C@@H](O)C[C@@H](O)[C@H](O)CC[C@@H](O)C[C@@H](O)CC(=O)O[C@H]1C)C[C@H](O)[C@H]2NC(=O)N1C[C@@H](O)[C@H](O)C1 [I-260] | –
4 | 0.5 µg/mL (≈ 0.516 µM) | 0.5 µg/mL (≈ 0.516 µM) | 0.25 µg/mL (≈ 0.258 µM) | – | – | – | C[C@@H]1[C@H](O)[C@@H](C)/C=C/C=C/C=C/C=C/C=C/C=C/C=C/[C@H](O[C@@H]2O[C@H](C)[C@@H](O)[C@H](N)[C@@H]2O)C[C@@H]2O[C@](O)(C[C@@H](O)C[C@@H](O)[C@H](O)CC[C@@H](O)C[C@@H](O)CC(=O)O[C@H]1C)C[C@H](O)[C@H]2NC(=O)N(C)O [I-266] | –
5 | – | – | – | – | – | – | C[C@@H]1[C@H](O)[C@@H](C)/C=C/C=C/C=C/C=C/C=C/C=C/C=C/[C@H](O[C@@H]2O[C@H](C)[C@@H](O)[C@H](N)[C@@H]2O)C[C@@H]2O[C@](O)(C[C@@H](O)C[C@@H](O)[C@H](O)CC[C@@H](O)C[C@@H](O)CC(=O)O[C@H]1C)C[C@H](O)[C@H]2NC(=O)N(O)CC(N)=O [I-273] | MIC (A. flavus ATCC204304; Aspergillus flavus, ATCC204304): 0.5 µg/mL (≈ 0.494 µM); MIC (A. fumigatus ATCC204305; Aspergillus fumigatus, ATCC204305): 0.5 µg/mL (≈ 0.494 µM); MIC (C. albicans ATCC90028; Candida albicans, ATCC90028): 0.25 µg/mL (≈ 0.247 µM)
6 | 0.5 µg/mL (≈ 0.501 µM) | 0.5 µg/mL (≈ 0.501 µM) | 0.5 µg/mL (≈ 0.501 µM) | – | – | – | C[C@@H]1[C@H](O)[C@@H](C)/C=C/C=C/C=C/C=C/C=C/C=C/C=C/[C@H](O[C@@H]2O[C@H](C)[C@@H](O)[C@H](N)[C@@H]2O)C[C@@H]2O[C@](O)(C[C@@H](O)C[C@@H](O)[C@H](O)CC[C@@H](O)C[C@@H](O)CC(=O)O[C@H]1C)C[C@H](O)[C@H]2NC(=O)N(O)CCO [I-274] | –
7 | 1 µg/mL (≈ 0.973 µM) | 0.5 µg/mL (≈ 0.486 µM) | 0.5 µg/mL (≈ 0.486 µM) | – | – | – | C[C@@H]1[C@H](O)[C@@H](C)/C=C/C=C/C=C/C=C/C=C/C=C/C=C/[C@H](O[C@@H]2O[C@H](C)[C@@H](O)[C@H](N)[C@@H]2O)C[C@@H]2O[C@](O)(C[C@@H](O)C[C@@H](O)[C@H](O)CC[C@@H](O)C[C@@H](O)CC(=O)O[C@H]1C)C[C@H](O)[C@H]2NC(=O)N(O)C[C@H](O)CO [I-275] | –
8 | 0.5 µg/mL (≈ 0.494 µM) | 0.5 µg/mL (≈ 0.494 µM) | 0.5 µg/mL (≈ 0.494 µM) | – | – | – | C[C@@H]1[C@H](O)[C@@H](C)/C=C/C=C/C=C/C=C/C=C/C=C/C=C/[C@H](O[C@@H]2O[C@H](C)[C@@H](O)[C@H](N)[C@@H]2O)C[C@@H]2O[C@](O)(C[C@@H](O)C[C@@H](O)[C@H](O)CC[C@@H](O)C[C@@H](O)CC(=O)O[C@H]1C)C[C@H](O)[C@H]2NC(=O)N(O)CC(=O)O [I-276] | –
9 | – | – | – | 0.5 µg/mL (≈ 0.494 µM) | 0.5 µg/mL (≈ 0.494 µM) | 0.5 µg/mL (≈ 0.494 µM) | C[C@@H]1[C@H](O)[C@@H](C)/C=C/C=C/C=C/C=C/C=C/C=C/C=C/[C@H](O[C@@H]2O[C@H](C)[C@@H](O)[C@H](N)[C@@H]2O)C[C@@H]2O[C@](O)(C[C@@H](O)C[C@@H](O)[C@H](O)CC[C@@H](O)C[C@@H](O)CC(=O)O[C@H]1C)C[C@H](O)[C@H]2NC(=O)NOCC(=O)O [I-278] | –
10 | – | – | – | 1 µg/mL (≈ 0.899 µM) | 0.5 µg/mL (≈ 0.45 µM) | 0.5 µg/mL (≈ 0.45 µM) | C[C@@H]1[C@H](O)[C@@H](C)/C=C/C=C/C=C/C=C/C=C/C=C/C=C/[C@H](O[C@@H]2O[C@H](C)[C@@H](O)[C@H](N)[C@@H]2O)C[C@@H]2O[C@](O)(C[C@@H](O)C[C@@H](O)[C@H](O)CC[C@@H](O)C[C@@H](O)CC(=O)O[C@H]1C)C[C@H](O)[C@H]2NC(=O)N1C[C@@](O)(C(=O)O)[C@@](O)(C(=O)O)C1 [I-298] | –
